Results from ChEMBL document CHEMBL5678818, “Discovery of potent SOS1 inhibitors that block RAS activation via disruption of the RAS-SOS1 interaction” (Proc Natl Acad Sci U S A, 2019).

How the values were obtained:
[1] = target: Testis-specific serine/threonine-protein kinase 3 (Homo sapiens) (UniProt Q96PN8); assay: Inhibition of TSSK3 (unknown origin) assessed as residual activity at 1000 nM by KINOMEscan analysis relative to control
[2] = target: T1, Atypical kinase COQ8B, mitochondrial (Homo sapiens) (UniProt Q96D53); assay: Inhibition of ADCK4 (unknown origin) assessed as residual activity at 100 nM by KINOMEscan analysis relative to control
T1 sequence (whole entry): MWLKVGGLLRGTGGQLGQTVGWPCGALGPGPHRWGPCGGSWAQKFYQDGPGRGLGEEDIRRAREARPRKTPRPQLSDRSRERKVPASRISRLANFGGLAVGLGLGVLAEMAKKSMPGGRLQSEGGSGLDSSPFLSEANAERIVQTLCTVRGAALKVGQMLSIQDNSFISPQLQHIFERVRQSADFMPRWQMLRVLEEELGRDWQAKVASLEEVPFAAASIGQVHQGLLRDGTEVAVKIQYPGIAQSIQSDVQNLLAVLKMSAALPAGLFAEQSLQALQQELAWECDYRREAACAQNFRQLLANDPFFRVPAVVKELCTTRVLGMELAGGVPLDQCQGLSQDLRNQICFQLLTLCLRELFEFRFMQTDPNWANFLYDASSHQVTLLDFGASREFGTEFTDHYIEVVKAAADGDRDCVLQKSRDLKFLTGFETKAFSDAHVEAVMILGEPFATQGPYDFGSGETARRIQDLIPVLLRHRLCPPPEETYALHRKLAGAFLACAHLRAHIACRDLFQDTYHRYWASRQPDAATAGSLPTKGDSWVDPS

[3] = target: Mitogen-activated protein kinase 7 (Homo sapiens) (UniProt Q13164); assay: Inhibition of ERK5 (unknown origin) assessed as residual activity at 100 nM by KINOMEscan analysis relative to control
[4] = target: RAC-alpha serine/threonine-protein kinase (Homo sapiens) (UniProt P31749); assay: Inhibition of AKT1 (unknown origin) assessed as residual activity at 100 nM by KINOMEscan analysis relative to control
[5] = test system: ALK tyrosine kinase receptor (Homo sapiens), Q9UM73 [C1156Y]; assay: Inhibition of ALK C1156Y mutant (unknown origin) assessed as residual activity at 100 nM by KINOMEscan analysis relative to control
[6] = target: Casein kinase II subunit alpha' (Homo sapiens) (UniProt P19784); assay: Inhibition of CSNK2A2 (unknown origin) assessed as residual activity at 100 nM by KINOMEscan analysis relative to control
[7] = target: Protein-tyrosine kinase 6 (Homo sapiens) (UniProt Q13882); assay: Inhibition of BRK (unknown origin) assessed as residual activity at 100 nM by KINOMEscan analysis relative to control
[8] = target: T2, Serine/threonine-protein kinase Nek5 (Homo sapiens) (UniProt Q6P3R8); assay: Inhibition of NEK5 (unknown origin) assessed as residual activity at 100 nM by KINOMEscan analysis relative to control
T2 sequence (whole entry): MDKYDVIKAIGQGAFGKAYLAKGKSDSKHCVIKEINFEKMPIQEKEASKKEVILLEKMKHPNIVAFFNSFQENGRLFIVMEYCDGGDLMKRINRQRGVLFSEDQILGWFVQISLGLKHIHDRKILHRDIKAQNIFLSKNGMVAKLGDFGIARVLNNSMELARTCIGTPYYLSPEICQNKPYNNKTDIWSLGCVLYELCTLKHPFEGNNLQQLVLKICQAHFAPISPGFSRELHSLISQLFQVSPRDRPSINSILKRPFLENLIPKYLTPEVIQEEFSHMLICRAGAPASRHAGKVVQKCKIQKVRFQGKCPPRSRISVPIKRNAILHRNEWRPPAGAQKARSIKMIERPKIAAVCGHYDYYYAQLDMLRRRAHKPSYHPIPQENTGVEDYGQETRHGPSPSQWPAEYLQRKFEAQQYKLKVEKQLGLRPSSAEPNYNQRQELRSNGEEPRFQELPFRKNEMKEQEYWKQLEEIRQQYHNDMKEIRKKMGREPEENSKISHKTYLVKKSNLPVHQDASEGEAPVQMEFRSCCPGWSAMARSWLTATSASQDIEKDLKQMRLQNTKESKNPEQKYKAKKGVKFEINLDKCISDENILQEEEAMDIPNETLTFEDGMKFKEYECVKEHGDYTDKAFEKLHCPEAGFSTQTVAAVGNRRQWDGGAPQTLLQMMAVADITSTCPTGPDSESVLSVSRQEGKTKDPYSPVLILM

[9] = target: Protein kinase C delta type (Homo sapiens) (UniProt Q05655); assay: Inhibition of PRKCD (unknown origin) assessed as residual activity at 100 nM by KINOMEscan analysis relative to control
[10] = target: Insulin-like growth factor 1 receptor (Homo sapiens) (UniProt P08069); assay: Inhibition of IGF1R (unknown origin) assessed as residual activity at 100 nM by KINOMEscan analysis relative to control
Chain of Insulin-like growth factor 1 receptor (Homo sapiens) (P08069 31-736 limits assumed): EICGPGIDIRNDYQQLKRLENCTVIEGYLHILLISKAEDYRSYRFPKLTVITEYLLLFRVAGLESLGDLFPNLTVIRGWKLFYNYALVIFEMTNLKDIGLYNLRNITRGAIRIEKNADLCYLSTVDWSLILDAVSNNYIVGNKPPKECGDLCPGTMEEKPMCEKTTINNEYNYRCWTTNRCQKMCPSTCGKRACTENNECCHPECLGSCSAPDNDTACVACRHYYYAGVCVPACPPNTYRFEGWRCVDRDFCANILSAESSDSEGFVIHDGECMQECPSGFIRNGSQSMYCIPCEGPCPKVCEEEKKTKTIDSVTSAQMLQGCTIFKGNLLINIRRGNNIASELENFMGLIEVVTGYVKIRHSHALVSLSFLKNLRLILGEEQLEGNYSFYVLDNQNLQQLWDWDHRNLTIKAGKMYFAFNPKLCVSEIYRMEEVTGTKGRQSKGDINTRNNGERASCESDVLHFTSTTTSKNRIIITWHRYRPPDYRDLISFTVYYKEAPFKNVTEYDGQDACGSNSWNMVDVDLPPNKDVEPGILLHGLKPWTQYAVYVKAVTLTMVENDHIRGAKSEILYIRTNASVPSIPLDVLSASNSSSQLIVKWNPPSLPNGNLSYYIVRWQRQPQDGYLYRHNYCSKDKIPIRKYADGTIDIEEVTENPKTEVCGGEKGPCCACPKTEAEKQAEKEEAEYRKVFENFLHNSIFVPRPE
Chain of Insulin-like growth factor 1 receptor (Homo sapiens) (P08069 741-1367 limits assumed): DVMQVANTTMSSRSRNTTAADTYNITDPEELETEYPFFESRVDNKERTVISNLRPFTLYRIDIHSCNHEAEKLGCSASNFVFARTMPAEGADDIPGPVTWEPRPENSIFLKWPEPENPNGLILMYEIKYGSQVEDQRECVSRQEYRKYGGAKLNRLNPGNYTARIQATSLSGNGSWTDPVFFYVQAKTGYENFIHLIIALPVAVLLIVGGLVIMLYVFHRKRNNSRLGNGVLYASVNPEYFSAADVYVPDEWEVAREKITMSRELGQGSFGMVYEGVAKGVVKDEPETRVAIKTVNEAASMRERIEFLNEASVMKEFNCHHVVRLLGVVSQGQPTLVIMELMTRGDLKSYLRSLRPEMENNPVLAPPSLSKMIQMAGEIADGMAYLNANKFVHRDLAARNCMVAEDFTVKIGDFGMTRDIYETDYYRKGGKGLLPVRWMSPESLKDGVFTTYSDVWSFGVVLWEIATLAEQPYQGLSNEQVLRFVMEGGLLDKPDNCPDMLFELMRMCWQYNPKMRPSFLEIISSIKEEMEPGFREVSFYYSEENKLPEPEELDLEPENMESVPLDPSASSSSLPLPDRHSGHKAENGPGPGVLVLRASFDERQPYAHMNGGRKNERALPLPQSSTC

Chain of RAC-alpha serine/threonine-protein kinase (Homo sapiens) (P31749 whole entry): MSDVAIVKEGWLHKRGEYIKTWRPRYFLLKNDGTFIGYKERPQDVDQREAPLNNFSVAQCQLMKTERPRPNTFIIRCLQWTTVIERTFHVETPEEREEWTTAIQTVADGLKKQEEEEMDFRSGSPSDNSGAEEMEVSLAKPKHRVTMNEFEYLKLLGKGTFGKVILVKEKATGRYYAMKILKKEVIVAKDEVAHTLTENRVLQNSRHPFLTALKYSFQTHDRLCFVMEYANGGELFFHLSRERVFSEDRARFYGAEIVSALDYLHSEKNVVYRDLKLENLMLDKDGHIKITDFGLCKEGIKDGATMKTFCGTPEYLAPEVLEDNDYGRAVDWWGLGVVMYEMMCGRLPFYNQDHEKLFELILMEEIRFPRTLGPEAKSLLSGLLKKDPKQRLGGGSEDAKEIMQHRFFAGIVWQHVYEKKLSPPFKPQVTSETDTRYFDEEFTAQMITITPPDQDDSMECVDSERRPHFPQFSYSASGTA
Chain of ALK tyrosine kinase receptor (Homo sapiens), Q9UM73 [C1156Y] (Q9UM73 whole entry C1156Y, looked up): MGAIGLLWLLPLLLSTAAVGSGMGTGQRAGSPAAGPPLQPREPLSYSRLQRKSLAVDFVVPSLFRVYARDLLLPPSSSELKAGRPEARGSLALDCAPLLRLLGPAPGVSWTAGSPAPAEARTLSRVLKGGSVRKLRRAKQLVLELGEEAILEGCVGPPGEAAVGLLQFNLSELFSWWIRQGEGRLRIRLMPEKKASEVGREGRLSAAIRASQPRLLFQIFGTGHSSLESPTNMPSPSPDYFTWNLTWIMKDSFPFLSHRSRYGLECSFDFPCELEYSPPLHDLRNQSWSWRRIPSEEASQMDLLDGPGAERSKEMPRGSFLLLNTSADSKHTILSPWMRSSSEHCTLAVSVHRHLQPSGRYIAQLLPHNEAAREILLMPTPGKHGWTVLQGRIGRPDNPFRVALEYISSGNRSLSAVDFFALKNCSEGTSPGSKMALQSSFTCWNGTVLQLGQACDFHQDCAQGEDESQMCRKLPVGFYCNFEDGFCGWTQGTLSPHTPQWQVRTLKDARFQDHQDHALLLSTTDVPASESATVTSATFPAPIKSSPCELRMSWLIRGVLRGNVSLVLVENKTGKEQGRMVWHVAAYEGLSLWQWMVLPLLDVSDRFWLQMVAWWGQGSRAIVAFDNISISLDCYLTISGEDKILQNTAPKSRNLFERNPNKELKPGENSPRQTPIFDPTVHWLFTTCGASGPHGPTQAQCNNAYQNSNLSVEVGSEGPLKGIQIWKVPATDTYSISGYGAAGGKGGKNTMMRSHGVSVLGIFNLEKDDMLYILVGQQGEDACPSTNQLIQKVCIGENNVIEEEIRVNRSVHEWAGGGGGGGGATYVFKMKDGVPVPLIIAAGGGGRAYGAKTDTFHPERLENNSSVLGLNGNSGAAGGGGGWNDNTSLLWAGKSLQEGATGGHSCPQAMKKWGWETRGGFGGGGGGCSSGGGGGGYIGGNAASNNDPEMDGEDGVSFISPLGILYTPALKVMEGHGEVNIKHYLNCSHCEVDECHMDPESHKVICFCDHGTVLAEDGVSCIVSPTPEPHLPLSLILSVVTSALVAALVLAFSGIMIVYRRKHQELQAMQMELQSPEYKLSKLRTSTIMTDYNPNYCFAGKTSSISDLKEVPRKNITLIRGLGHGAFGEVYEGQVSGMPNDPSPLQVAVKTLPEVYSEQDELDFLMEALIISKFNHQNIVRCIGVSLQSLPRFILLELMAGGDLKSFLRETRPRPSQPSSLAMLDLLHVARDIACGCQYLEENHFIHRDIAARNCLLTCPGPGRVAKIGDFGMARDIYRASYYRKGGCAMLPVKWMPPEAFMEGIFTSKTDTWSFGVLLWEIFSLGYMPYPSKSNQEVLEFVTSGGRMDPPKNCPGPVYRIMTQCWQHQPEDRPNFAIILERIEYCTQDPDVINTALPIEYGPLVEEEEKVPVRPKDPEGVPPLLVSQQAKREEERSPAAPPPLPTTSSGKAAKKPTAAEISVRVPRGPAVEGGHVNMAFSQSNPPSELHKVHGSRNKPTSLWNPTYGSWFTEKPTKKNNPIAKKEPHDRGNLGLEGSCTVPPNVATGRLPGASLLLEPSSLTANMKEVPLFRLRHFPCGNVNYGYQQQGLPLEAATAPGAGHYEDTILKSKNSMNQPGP
Chain of Casein kinase II subunit alpha' (Homo sapiens) (P19784 whole entry, looked up): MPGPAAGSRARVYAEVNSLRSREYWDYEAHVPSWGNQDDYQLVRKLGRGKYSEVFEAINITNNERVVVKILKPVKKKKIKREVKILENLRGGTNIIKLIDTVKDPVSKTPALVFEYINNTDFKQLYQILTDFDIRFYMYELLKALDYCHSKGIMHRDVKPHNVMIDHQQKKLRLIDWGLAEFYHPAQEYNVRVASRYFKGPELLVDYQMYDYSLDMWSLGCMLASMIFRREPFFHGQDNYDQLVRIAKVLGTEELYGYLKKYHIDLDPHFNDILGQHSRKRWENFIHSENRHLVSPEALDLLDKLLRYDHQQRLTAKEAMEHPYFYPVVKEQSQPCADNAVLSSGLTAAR
Chain of Testis-specific serine/threonine-protein kinase 3 (Homo sapiens) (Q96PN8 whole entry): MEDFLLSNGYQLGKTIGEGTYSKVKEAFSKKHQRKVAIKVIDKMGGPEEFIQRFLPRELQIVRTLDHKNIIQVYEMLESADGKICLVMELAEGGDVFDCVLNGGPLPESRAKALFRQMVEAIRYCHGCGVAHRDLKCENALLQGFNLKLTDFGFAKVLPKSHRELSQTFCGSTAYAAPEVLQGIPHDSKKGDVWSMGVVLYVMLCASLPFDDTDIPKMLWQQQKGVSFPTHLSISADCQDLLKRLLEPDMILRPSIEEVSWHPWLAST
Chain of Protein kinase C delta type (Homo sapiens) (Q05655 whole entry, looked up): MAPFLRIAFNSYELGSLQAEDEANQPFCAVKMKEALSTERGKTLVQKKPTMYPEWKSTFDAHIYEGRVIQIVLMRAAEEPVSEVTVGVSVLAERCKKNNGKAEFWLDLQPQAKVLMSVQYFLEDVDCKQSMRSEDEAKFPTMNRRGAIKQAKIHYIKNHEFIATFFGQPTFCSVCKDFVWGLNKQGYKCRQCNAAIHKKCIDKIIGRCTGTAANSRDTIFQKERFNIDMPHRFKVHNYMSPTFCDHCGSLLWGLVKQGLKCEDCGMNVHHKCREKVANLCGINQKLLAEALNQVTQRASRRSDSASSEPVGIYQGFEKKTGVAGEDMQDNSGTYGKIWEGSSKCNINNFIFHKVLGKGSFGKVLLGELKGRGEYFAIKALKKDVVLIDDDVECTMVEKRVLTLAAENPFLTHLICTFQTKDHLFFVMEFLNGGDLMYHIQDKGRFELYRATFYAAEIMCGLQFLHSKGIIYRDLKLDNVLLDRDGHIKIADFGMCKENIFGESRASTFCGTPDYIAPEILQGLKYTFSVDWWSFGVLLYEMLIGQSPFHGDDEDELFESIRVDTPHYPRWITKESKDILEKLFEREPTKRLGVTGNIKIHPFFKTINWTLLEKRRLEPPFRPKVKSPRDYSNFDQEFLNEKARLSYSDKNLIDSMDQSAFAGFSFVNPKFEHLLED

Compound | Activity [1] [%] | Activity [2] [%] | Activity [3] [%] | Activity [4] [%] | Activity [5] [%] | Activity [6] [%] | Activity [7] [%] | Activity [8] [%] | Activity [9] [%] | Activity [10] [%]
COc1cc2nc(C)nc(N[C@H](C)c3cccc(-c4cn[nH]c4)c3)c2cc1OC | 77 | – | – | – | – | – | – | – | – | –
COc1cc2ncnc(N[C@H](C)c3cccc4ccccc34)c2cc1OC | – | 61 | 84 | 79 | 99 | 87 | 80 | 31 | 100 | 82
